According to patent publication US20160199406A1, “NON-[…] IN COMBINATION WITH LIQUID […] FOR ORGAN PROTECTION” (priority 2013, published 2016):

What was measured:
[1] = normobaric conditions, cited from earlier work
[2] = test system: injured retinal ganglion cells; experiment: Annexin V-PeCy7 flow cytometric evaluation of early apoptosis in injured retinal ganglion cells after unilateral optic nerve axotomy; assay type: in vivo, B6.Cg-Tg(Thy1-YFP)16Jrs/J mice
Text: B6.Cg-Tg(Thy1-YFP)16Jrs/J mice: Thy1-YFP mice were exposed to a vapor anesthetic agent (Isofluorane or Sevofluorane), in an anesthetic induction chamber. Animals were temperature probed, sterile eye lubricant was applied to prevent corneal damage, and an incision was made adjacent to the orbital ridge. The left orbit was exposed, and the lacrimal gland gently resected and covered with saline soaked gauze. […] Using microscissors, the dura was resected, and the optic nerve was transected approximately 0.5 mm from the posterior aspect of the eye bulb. Preservation of blood supply was evaluated through the dissecting microscope focused through a dilated pupil and a coverslip. The skin was closed with suture clips, analgesics (buprenorphine in saline) administered, and the mouse was transferred to an Argon (70%)/Oxygen (30%) perfused air chamber on a warming mat. […] Control mice were exposed to normal atmospheric conditions post-injury (See FIG. 1). Internal surgical controls were the uninjured retina of the contralateral eye.
Retinal Dissection, dissociation, and staining of cells: Mice were lightly anesthetized with Isofluorane and killed via cervical dislocation. Eyes were rapidly removed and placed in ice cold Hank's Balanced Salt Solution (HBSS). A single puncture to the conjunctiva was made, and corneas removed by microdissection. The ciliary epithelium and lens were then resected, and vitreous humor was visualized using triamcinolone acetonide solution to aid in removal by aspiration and microdissection. Free floating retinas were then transferred to fresh HBSS on ice, then transferred to 1 ml of enzyme solution containing Trypsin (MACS—Miltenyi Biotec). Following a 15 minute incubation at 37 degrees C. with periodic agitation, retinas were dissociated with fire polished pipettes and centrifuged. Pellets were washed in Annexin V binding buffer, and centrifuged. Pellets were the re-dissociated in DNAse-containing binding buffer, and stained for Annexin V-PeCy7 probe. Cells were washed, cell strained (40 um), and analyzed using a BD FacsAria III flow cytometer.
Flow cytometry and data analysis: Compensation and gating was established using unstained, YFP-only, Annexin V-only, and double-labeled cell samples. Dead cell assays (not shown) were also performed using propidium iodide and 7-AAD DNA intercalating dyes. Forward and side scatter gating were used to exclude debris, and YFP-positive cells were gated and used as the reference population. Quadrant analysis was used to identify and quantify Annexin V labeling within YFP expressing cells across groups. A within-subjects comparison was performed by comparing injured and uninjured retinas from the same animal. Difference scores (uninjured—injured Annexin V cell counts) were produced in order to normalize Annexin V background labeling in right eyes. All data are represented as means +/−1.0 standard error of the mean.

## [Xe] [Xenon, xenon, reference compound]
[1]
  concentration with capacity to provide anesthesia: 71%

## [Ar] [argon]
[2]; 24 h post-injury, Argon (70%)/Oxygen (30%) chamber after surgery under Isofluorane or Sevofluorane, buprenorphine
  difference score (uninjured - injured Annexin V cell counts within YFP-positive population): positive difference score
[2]; 48 h post-injury, Argon (70%)/Oxygen (30%) chamber post-injury
  Annexin V binding in injured retinas: strong resistance to Annexin V binding
[2]; 72 hours post-injury
  neuroprotection: retained at 72 hours
[2]; overall conclusion from the data
  neuroprotective effect in combination with liquid anesthetics: provides a neuroprotective effect within the central nervous system
[2]; post-injury, Argon (70%)/Oxygen (30%)
  time of peak of neuroprotection effect size: around 48 h
[1]; high inspiratory concentrations
  anesthetic effects: does not provide anesthetic effects
